The source of these data is ChEMBL document CHEMBL3228009, “Hypobetalipoproteinemic agents. 2. Compounds related to 4-(1-adamantyloxy)aniline” (J Med Chem, 1979).

Data set [1] is filed under the species Rattus norvegicus. Briefly: Selectivity ratio of T/C for heparin precipitating lipoproteins to T/C for total serum cholesterol in diet-induced hypercholesteremic rat model. Format: functional.
For data set [2], the system named is Rattus norvegicus. Briefly: Toxicity in diet-induced hypercholesteremic rat model assessed as increase in food intake at 50 mg/kg, po relative to control. The format is organism-based. On the set-up: dose 50 mg/kg, route oral. Particulars: in vivo.
Data set [3] has as its system Rattus norvegicus. Briefly: Toxicity in diet-induced hypercholesteremic rat model assessed as increase in body weight at 50 mg/kg, po relative to control. Format: organism-based. On the set-up: dose 50 mg/kg, route oral. The following applies: in vivo.
Data set [4] deals with Rattus norvegicus. Briefly: Hypobetalipoproteinemic activity in diet-induced hypercholesteremic rat model assessed as decrease in total serum cholesterol at 50 mg/kg, po relative to control. Format: functional.
For data set [5], the system named is Rattus norvegicus. Briefly: Hypobetalipoproteinemic activity in diet-induced hypercholesteremic rat model assessed as decrease in heparin precipitating lipoproteins at 50 mg/kg, po relative to control. The format is functional.

A value given as a limit tells only on which side of the number the result lay.

Take `Nc1ccc(OC23CCC(CC2)CC3)cc1`: the Selectivity ratio in data set [1] is reported as 0.9. For the same compound, the Activity in data set [2] was more than 73%; in data set [3], more than 63%. In addition, the T/C in data set [4] was 0.8; in data set [5], 0.72.

For `Nc1ccc(OC23CC4CC(CC(C4)C2)C3)cc1`, in data set [1], the Selectivity ratio worked out at 0.65. Further, the Activity in data set [2] is recorded as more than 73%; in data set [3], more than 63%. Besides, the T/C in data set [4] stood at 0.54; in data set [5] it was 0.35.

For the compound `O=CNc1ccc(OC23CC4CC(CC(C4)C2)C3)cc1`, in data set [1], the Selectivity ratio is 1.09. For the same compound, the Activity in data set [2] is more than 73%; in data set [3], more than 63%. The T/C in data set [4] is 0.71; in data set [5] it was 0.78.

Consider `CCOC(=O)Nc1ccc(OC23CC4CC(CC(C4)C2)C3)cc1`, for which the Selectivity ratio in data set [1] was 0.74. The Activity was more than 73% in data set [2] and more than 63% in data set [3]. Besides, the T/C was 0.57 in data set [4] and 0.42 in data set [5].

Take `CC(=O)Nc1ccc(OC23CC4CC(CC(C4)C2)C3)cc1`: the Selectivity ratio in data set [1] was 0.76. Further, the Activity in data set [2] is more than 73%; in data set [3] it was more than 63%. Also, the T/C in data set [4] is 0.66; in data set [5], 0.5.

As for `CS(=O)(=O)Nc1ccc(OC23CC4CC(CC(C4)C2)C3)cc1`, the Selectivity ratio in data set [1] is 0.85. The values for the Activity in data set [2] and in data set [3] were more than 73% and more than 63%, respectively. Besides, the results for the T/C in data set [4] and in data set [5] were 1.51 and 1.3, respectively.

With `CNC(=O)Nc1ccc(OC23CC4CC(CC(C4)C2)C3)cc1`, the Selectivity ratio in data set [1] amounted to 0.91. Besides, the Activity was more than 73% in data set [2] and more than 63% in data set [3]. Moreover, the T/C in data set [4] is 1.06; in data set [5] it was 0.96.

Take `O=C(Nc1ccccc1)Nc1ccc(OC23CC4CC(CC(C4)C2)C3)cc1`: the Selectivity ratio in data set [1] amounted to 1.05. Moreover, the Activity in data set [2] is more than 73%; in data set [3], more than 63%. Also, the T/C in data set [4] was 1.18; in data set [5], 1.23.

In the case of `S=C(Nc1ccc(OC23CC4CC(CC(C4)C2)C3)cc1)NC12CC3CC(CC(C3)C1)C2`, the Selectivity ratio in data set [1] turned out to be 1.03. In addition, the results for the Activity in data set [2] and in data set [3] were more than 73% and more than 63%, respectively. Also, the T/C came to 0.88 in data set [4] and 0.91 in data set [5].

Take `CNc1ccc(OC23CC4CC(CC(C4)C2)C3)cc1.Cl`: in data set [1], the Selectivity ratio was 0.63. The Activity in data set [2] was more than 73%; in data set [3] it was more than 63%. Also, the T/C came out at 0.52 in data set [4] and 0.32 in data set [5].

For the compound `CCNc1ccc(OC23CC4CC(CC(C4)C2)C3)cc1.Cl`, in data set [1], the Selectivity ratio is reported as 0.72. Moreover, the Activity in data set [2] is more than 73%; in data set [3], more than 63%. The results for the T/C in data set [4] and in data set [5] were 0.49 and 0.36, respectively.

In the case of `c1cc(N2CCCC2)ccc1OC12CC3CC(CC(C3)C1)C2`, in data set [1], the Selectivity ratio amounted to 0.8. Further, the figures for the Activity in data set [2] and in data set [3] were more than 73% and more than 63%, respectively. Besides, the T/C was determined as 0.65 in data set [4] and 0.52 in data set [5].

Turning to `c1cc(N2CCCCC2)ccc1OC12CC3CC(CC(C3)C1)C2`, the Selectivity ratio in data set [1] is 0.58. The Activity in data set [2] is on record as more than 73%; in data set [3] it was more than 63%. Also, the results for the T/C in data set [4] and in data set [5] were 0.44 and 0.25, respectively.

Turning to `c1cc(N2CCOCC2)ccc1OC12CC3CC(CC(C3)C1)C2`, in data set [1], the Selectivity ratio stood at 0.94. Moreover, the Activity is recorded as more than 73% in data set [2] and more than 63% in data set [3]. Besides, the T/C in data set [4] turned out to be 0.92; in data set [5] it was 0.87.

In the case of `C#CCN(C)c1ccc(OC23CC4CC(CC(C4)C2)C3)cc1.Cl`, the Selectivity ratio in data set [1] is 1.05. Moreover, the Activity in data set [2] is more than 73%; in data set [3], more than 63%. Also, the results for the T/C in data set [4] and in data set [5] were 0.57 and 0.6, respectively.

Turning to `CN(CCO)c1ccc(OC23CC4CC(CC(C4)C2)C3)cc1`, the Selectivity ratio in data set [1] turned out to be 0.88. For the same compound, the Activity is reported as more than 73% in data set [2] and more than 63% in data set [3]. The T/C worked out at 0.63 in data set [4] and 0.55 in data set [5].

Take `CN(CCN1CCCC1)c1ccc(OC23CC4CC(CC(C4)C2)C3)cc1.Cl`: the Selectivity ratio in data set [1] is on record as 0.97. In addition, the Activity is on record as more than 73% in data set [2] and more than 63% in data set [3]. Besides, the figures for the T/C in data set [4] and in data set [5] were 1.26 and 1.22, respectively.

With `CN(C)CCCN(C)c1ccc(OC23CC4CC(CC(C4)C2)C3)cc1.Cl`, the Selectivity ratio in data set [1] amounted to 1.01. The Activity is listed as more than 73% in data set [2] and more than 63% in data set [3]. Moreover, the T/C in data set [4] stood at 0.98; in data set [5], 0.99.

On to `CN(C=O)c1ccc(OC23CC4CC(CC(C4)C2)C3)cc1`, for which the Selectivity ratio in data set [1] is 0.72. Moreover, the Activity in data set [2] is reported as more than 73%; in data set [3] it was more than 63%. Also, the T/C in data set [4] was 0.51; in data set [5] it was 0.36.

On to `CN(C)c1ccc(OC23CC4CC(CC(C4)C2)C3)cc1.Cl`, for which, in data set [1], the Selectivity ratio came out at 0.73. Moreover, the Activity in data set [2] is recorded as more than 73%; in data set [3] it was more than 63%. Also, the T/C came to 0.46 in data set [4] and 0.34 in data set [5].

With `CN(CCc1ccccc1)c1ccc(OC23CC4CC(CC(C4)C2)C3)cc1.Cl`, the Selectivity ratio in data set [1] amounted to 0.98. For the same compound, the Activity in data set [2] is more than 73%; in data set [3], more than 63%. For the same compound, the T/C in data set [4] is 1.09; in data set [5], 1.07.

`CN(CCOc1ccccc1)c1ccc(OC23CC4CC(CC(C4)C2)C3)cc1`: the Selectivity ratio in data set [1] is on record as 1.03. In addition, the figures for the Activity in data set [2] and in data set [3] were more than 73% and more than 63%, respectively. In addition, the T/C in data set [4] was 1.03; in data set [5] it was 1.06.

Regarding `CCCCCCCCN(C)c1ccc(OC23CC4CC(CC(C4)C2)C3)cc1.Cl`, the Selectivity ratio in data set [1] turned out to be 0.91. In addition, the Activity in data set [2] is given as more than 73%; in data set [3], more than 63%. The values for the T/C in data set [4] and in data set [5] were 1.15 and 1.04, respectively.

`Cc1cc(N)ccc1OC12CC3CC(CC(C3)C1)C2.Cl`: the Selectivity ratio in data set [1] was determined as 0.6. Further, the Activity in data set [2] is recorded as more than 73%; in data set [3], less than 63%. In addition, the T/C in data set [4] amounted to 0.52; in data set [5], 0.31.

Consider `Nc1ccc(OC23CC4CC(CC(C4)C2)C3)c(F)c1`, for which, in data set [1], the Selectivity ratio came to 0.92. For the same compound, the results for the Activity in data set [2] and in data set [3] were more than 73% and more than 63%, respectively. The T/C in data set [4] was determined as 0.57; in data set [5], 0.52.

As to `CC(=O)Nc1ccc(OC23CC4CC(CC(C4)C2)C3)c(F)c1`, in data set [1], the Selectivity ratio is recorded as 0.93. Further, the values for the Activity in data set [2] and in data set [3] were more than 73% and more than 63%, respectively. In addition, the T/C in data set [4] came to 1.15; in data set [5] it was 1.07.

On to `Fc1cc(N2CCCC2)ccc1OC12CC3CC(CC(C3)C1)C2`, for which the Selectivity ratio in data set [1] came out at 1.02. The Activity in data set [2] was more than 73%; in data set [3], more than 63%. For the same compound, the T/C in data set [4] turned out to be 0.8; in data set [5], 0.82.

Take `Nc1ccc(OC23CC4CC(CC(C4)C2)C3)cc1F`: the Selectivity ratio in data set [1] is recorded as 0.68. Moreover, the Activity in data set [2] is given as more than 73%; in data set [3], more than 63%. Besides, the results for the T/C in data set [4] and in data set [5] were 0.35 and 0.24, respectively.

`CC(=O)Nc1ccc(OC23CC4CC(CC(C4)C2)C3)cc1F`: the Selectivity ratio in data set [1] is given as 0.55. The Activity in data set [2] is more than 73%; in data set [3] it was more than 63%. The T/C in data set [4] is 0.62; in data set [5], 0.35.

Consider `Fc1cc(OC23CC4CC(CC(C4)C2)C3)ccc1N1CCCC1`, for which the Selectivity ratio in data set [1] was determined as 0.51. Also, the Activity in data set [2] is listed as more than 73%; in data set [3], more than 63%. Further, the T/C in data set [4] is on record as 0.58; in data set [5], 0.3.

`Cl.Nc1ccc(OC23CC4CC(CC(C4)C2)C3)c(Cl)c1`: the Selectivity ratio in data set [1] is listed as 0.68. Moreover, the Activity in data set [2] is given as more than 73%; in data set [3], more than 63%. Further, the T/C was 0.63 in data set [4] and 0.43 in data set [5].

`Clc1cc(N2CCCC2)ccc1OC12CC3CC(CC(C3)C1)C2`: in data set [1], the Selectivity ratio is listed as 0.98. Further, the Activity in data set [2] is reported as more than 73%; in data set [3] it was more than 63%. Also, the values for the T/C in data set [4] and in data set [5] were 1.08 and 1.07, respectively.

For the compound `Cc1cc(N)cc(C)c1OC12CC3CC(CC(C3)C1)C2.Cl`, in data set [1], the Selectivity ratio worked out at 0.93. The Activity is reported as more than 73% in data set [2] and more than 63% in data set [3]. Moreover, the T/C in data set [4] worked out at 0.86; in data set [5], 0.8.

On to `Cc1cc(N2CCCC2)cc(C)c1OC12CC3CC(CC(C3)C1)C2`, for which, in data set [1], the Selectivity ratio is listed as 0.96. For the same compound, the results for the Activity in data set [2] and in data set [3] were more than 73% and more than 63%, respectively. The T/C in data set [4] is 0.81; in data set [5], 0.78.

As to `CSCc1cc(OC23CC4CC(CC(C4)C2)C3)ccc1N`, the Selectivity ratio in data set [1] worked out at 0.76. For the same compound, the Activity in data set [2] is given as more than 73%; in data set [3], more than 63%. The T/C in data set [4] is 0.49; in data set [5] it was 0.38.

Regarding `Cc1cc(OC23CC4CC(CC(C4)C2)C3)ccc1N`, the Selectivity ratio in data set [1] amounted to 0.38. The Activity in data set [2] is less than 73%; in data set [3] it was less than 63%. The T/C in data set [4] was 0.64; in data set [5] it was 0.25.
